Results as given in patent US11649255B2, “Indazoles as hematopoietic progenitor kinase 1 (HPK1) inhibitors and methods using same” (1st Biotherapeutics, Inc., priority 2020, dated 2023).

Molecular target: recombinant human HPK1 (Homo sapiens (Human), UniProt Q92918)
Experiment: HPK1 kinase assay (ADP-Glo)
Type: biochemical
Conditions: 25 μM ATP, MBP substrate
In short: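 Activity was read as ADP formed, detected by ADP-Glo luminescence after the reaction of 5 ng recombinant human HPK1 with MBP and ATP (stocks 0.5 μg/μl and 25 μM) for 40 min at 30 °C. Buffer was Tris pH 7.5 with MgCl2, BSA and DTT, with compound in 0.5% DMSO. IC50 came from inhibition curves.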

Sequence of recombinant human HPK1 (Q92918 whole entry): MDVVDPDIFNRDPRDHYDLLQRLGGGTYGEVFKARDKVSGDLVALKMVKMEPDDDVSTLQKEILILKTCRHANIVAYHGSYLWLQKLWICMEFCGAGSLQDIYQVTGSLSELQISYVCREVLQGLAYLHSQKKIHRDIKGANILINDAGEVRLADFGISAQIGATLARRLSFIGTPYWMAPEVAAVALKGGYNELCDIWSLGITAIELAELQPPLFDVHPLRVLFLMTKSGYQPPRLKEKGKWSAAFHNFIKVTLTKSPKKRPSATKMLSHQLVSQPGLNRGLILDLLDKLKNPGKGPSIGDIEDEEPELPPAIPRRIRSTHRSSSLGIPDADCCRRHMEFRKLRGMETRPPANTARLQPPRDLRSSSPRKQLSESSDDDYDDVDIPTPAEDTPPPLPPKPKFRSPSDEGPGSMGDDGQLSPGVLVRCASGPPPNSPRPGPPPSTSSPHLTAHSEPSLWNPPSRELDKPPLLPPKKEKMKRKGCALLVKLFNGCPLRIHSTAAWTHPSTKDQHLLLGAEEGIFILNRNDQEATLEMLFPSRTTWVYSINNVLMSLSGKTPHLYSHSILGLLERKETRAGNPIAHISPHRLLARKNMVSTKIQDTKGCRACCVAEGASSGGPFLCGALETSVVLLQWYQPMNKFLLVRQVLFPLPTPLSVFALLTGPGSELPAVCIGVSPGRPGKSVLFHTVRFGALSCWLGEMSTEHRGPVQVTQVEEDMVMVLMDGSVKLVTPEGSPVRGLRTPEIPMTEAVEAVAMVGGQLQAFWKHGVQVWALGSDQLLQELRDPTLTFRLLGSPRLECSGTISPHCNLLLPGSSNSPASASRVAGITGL

SMILES | IC50 [nM]
CN(C)C(=O)c1c(F)cc(-c2ccn3nc(NC(=O)[C@@H]4C[C@@H]4F)cc3c2)c2cn[nH]c12 [Example 604, 6-fluoro-4-(2-((1S,2S)-2-fluorocyclopropane-1-carboxamido)pyrazolo[1,5-a]pyridin-5-yl)-N,N-dimethyl-1H-indazole-7-carboxamide] | 101 to 500
CNC(=O)c1c(F)c(Cl)c(-c2ccn3nc(NC(=O)[C@@H]4C[C@@H]4F)cc3c2)c2cn[nH]c12 [Example 560, 5-chloro-6-fluoro-4-(2-((1S,2S)-2-fluorocyclopropane-1-carboxamido)pyrazolo[1,5-a]pyridin-5-yl)-N-methyl-1H-indazole-7-carboxamide] | < 100
CCOc1c(F)c(SC)c2[nH]ncc2c1-c1ccn2nc(NC(=O)[C@@H]3C[C@@H]3F)cc2c1 [Example 606, (1S,2S)-N-(5-(5-ethoxy-6-fluoro-7-(methylthio)-1H-indazol-4-yl)pyrazolo[1,5-a]pyridin-2-yl)-2-fluorocyclopropane-1-carboxamide] | < 100
O=C(Nc1cc2cc(-c3c(Cl)c(F)c(F)c4[nH]ncc34)ccn2n1)[C@@H]1C[C@@H]1F [Example 536, (1S,2S)-N-(5-(5-chloro-6,7-difluoro-1H-indazol-4-yl)pyrazolo[1,5-a]pyridin-2-yl)-2-fluorocyclopropane-1-carboxamide] | < 100
CCOc1c(F)cc2[nH]ncc2c1-c1ccn2nc(NC(=O)[C@@H]3C[C@@H]3F)cc2c1 [Example 578, (1S,2S)-N-(5-(5-ethoxy-6-fluoro-1H-indazol-4-yl)pyrazolo[1,5-a]pyridin-2-yl)-2-fluorocyclopropane-1-carboxamide] | < 100
O=C(Nc1cc2cc(-c3c(Cl)c(F)c(Cl)c4[nH]ncc34)ccn2n1)[C@@H]1C[C@@H]1F [Example 476, (1S,2S)-N-(5-(5,7-dichloro-6-fluoro-1H-indazol-4-yl)pyrazolo[1,5-a]pyridin-2-yl)-2-fluorocyclopropane-1-carboxamide] | < 100
CC(NC(=O)C1CCC1)c1c(F)c(Cl)c(-c2ccn3nc(NC(=O)[C@@H]4C[C@@H]4F)cc3c2)c2cn[nH]c12 (stereo partly drawn) [Example 661, N-(1-(5-chloro-6-fluoro-4-(2-((1S,2S)-2-fluorocyclopropane-1-carboxamido)pyrazolo[1,5-a]pyridin-5-yl)-1H-indazol-7-yl)ethyl)cyclobutanecarboxamide] | < 100
O=C(Nc1nc2ccc(-c3c(Cl)ccc4[nH]ncc34)cc2s1)[C@@H]1C[C@@H]1F [Example 30, (1S,2S)-N-(6-(5-chloro-1H-indazol-4-yl)benzo[d]thiazol-2-yl)-2-fluorocyclopropane-1-carboxamide] | 101 to 500
Cc1c(F)c(C(F)(F)F)c2[nH]ncc2c1-c1ccc2nc(NC(=O)[C@@H]3C[C@@H]3F)sc2n1 [Example 205, (1S,2S)-2-fluoro-N-(5-(6-fluoro-5-methyl-7-(trifluoromethyl)-1H-indazol-4-yl)thiazolo[5,4-b]pyridin-2-yl)cyclopropane-1-carboxamide] | < 100
CC(C)Nc1c(F)c(Cl)c(-c2cc(N)c3nc(NC(=O)[C@@H]4C[C@@H]4F)cn3c2)c2cn[nH]c12 [Example 403, (1S,2S)-N-(8-amino-6-(5-chloro-6-fluoro-7-(isopropylamino)-1H-indazol-4-yl)imidazo[1,2-a]pyridin-2-yl)-2-fluorocyclopropane-1-carboxamide. 1 formic acid] | > 1000
CNC(=O)c1c(F)c(C)c(-c2ccc3nc(NC(=O)[C@@H]4C[C@@H]4F)sc3c2)c2cn[nH]c12 [Example 132, 6-fluoro-4-(2-((1S,2S)-2-fluorocyclopropane-1-carboxamido)benzo[d]thiazol-6-yl)-N,5-dimethyl-1H-indazole-7-carboxamide] | 101 to 500
CN(c1ncc(F)cn1)c1c(F)c(Cl)c(-c2ccn3nc(NC(=O)[C@@H]4C[C@@H]4F)cc3c2)c2cn[nH]c12 [Example 613, (1S,2S)-N-(5-(5-chloro-6-fluoro-7-((5-fluoropyrimidin-2-yl)(methyl)amino)-1H-indazol-4-yl)pyrazolo[1,5-a]pyridin-2-yl)-2-fluorocyclopropane-1-carboxamide] | < 100
CN(c1ccncc1)c1c(F)c(Cl)c(-c2ccn3nc(NC(=O)[C@@H]4C[C@@H]4F)cc3c2)c2cn[nH]c12 [Example 614, (1S,2S)-N-(5-(5-chloro-6-fluoro-7-(methyl(pyridin-4-yl)amino)-1H-indazol-4-yl)pyrazolo[1,5-a]pyridin-2-yl)-2-fluorocyclopropane-1-carboxamide] | < 100
O=C(Nc1cc2cc(-c3c(Br)ccc4[nH]ncc34)ccn2n1)[C@@H]1C[C@@H]1F [Example 455, (1S,2S)-N-(5-(5-bromo-1H-indazol-4-yl)pyrazolo[1,5-a]pyridin-2-yl)-2-fluorocyclopropane-1-carboxamide] | < 100
Cc1c(F)cc2[nH]nc(C3CC3)c2c1-c1ccn2nc(NC(=O)[C@@H]3C[C@@H]3F)cc2c1 [Example 473, (1S,2S)-N-(5-(3-cyclopropyl-6-fluoro-5-methyl-1H-indazol-4-yl)pyrazolo[1,5-a]pyridin-2-yl)-2-fluorocyclopropane-1-carboxamide] | > 1000
Cc1c(F)c(Cl)c2[nH]nc(Cl)c2c1-c1cc(Cl)c2nc(NC(=O)[C@@H]3C[C@@H]3F)sc2c1 [Example 54, (1S,2S)-N-(4-chloro-6-(3,7-dichloro-6-fluoro-5-methyl-1H-indazol-4-yl)benzo[d]thiazol-2-yl)-2-fluorocyclopropane-1-carboxamide] | > 1000
CC(C)c1c(F)cc2[nH]ncc2c1-c1ccc2nc(NC(=O)C3CC3)cn2c1 [Example 246, N-(6-(6-fluoro-5-isopropyl-1H-indazol-4-yl)imidazo[1,2-a]pyridin-2-yl)cyclopropanecarboxamide] | < 100
Cc1ncc(-c2c(F)c(Cl)c(-c3ccc4nc(NC(=O)[C@@H]5C[C@@H]5F)cn4c3)c3cn[nH]c23)[nH]1 [Example 442, (1S,2S)-N-(6-(5-chloro-6-fluoro-7-(2-methyl-1H-imidazol-5-yl)-1H-indazol-4-yl)imidazo[1,2-a]pyridin-2-yl)-2-fluorocyclopropane-1-carboxamide] | < 100
C#Cc1n[nH]c2cc(F)c(C)c(-c3ccn4nc(NC(=O)[C@@H]5C[C@@H]5F)cc4c3)c12 [Example 472, (1S,2S)-N-(5-(3-ethynyl-6-fluoro-5-methyl-1H-indazol-4-yl)pyrazolo[1,5-a]pyridin-2-yl)-2-fluorocyclopropane-1-carboxamide] | > 1000
O=C(Nc1cn2cc(-c3c(Cl)c(F)c(Cn4nccn4)c4[nH]ncc34)ccc2n1)[C@@H]1C[C@@H]1F [Example 383, (1S,2S)-N-(6-(7-((2H-1,2,3-triazol-2-yl)methyl)-5-chloro-6-fluoro-1H-indazol-4-yl)imidazo[1,2-a]pyridin-2-yl)-2-fluorocyclopropane-1-carboxamide] | < 100
CN(C)C1CCC(N(C)c2c(F)c(Cl)c(-c3ccn4nc(NC(=O)[C@@H]5C[C@@H]5F)cc4c3)c3cn[nH]c23)CC1 (stereo partly drawn) [Example 502, (1S,2S)-N-(5-(5-chloro-7-((4-(dimethylamino)cyclohexyl)(methyl)amino)-6-fluoro-1H-indazol-4-yl)pyrazolo[1,5-a]pyridin-2-yl)-2-fluorocyclopropane-1-carboxamide] | < 100
